pIC50: −log10 of the molar value.
target: T1, Recombinant human KIF18A (1-467 His-tagged) protein (Homo sapiens, UniProt Q8NI77); experiment: KIF18A Enzyme Assay (microtubule-stimulated ATPase activity, ADP-Glo); assay type: biochemical; conditions: KIF18A protein 30 nM, ATP 75 μM (at Km), 30 μg/mL pig microtubules, ADP-Glo luminescence
T1 construct: Recombinant human KIF18A (1-467 His-tagged) protein; His; made in house
Description: For compounds in Table A, the following assay conditions were employed:
KIF18A Enzyme Assay: Microtubule-stimulated ATPase activity assay is used to measure KIF18A enzyme activity after treatment with compound. Compounds were 2-fold serially diluted in DMSO (Sigma Inc) over 22-point concentration range. Recombinant human KIF18A (1-467 His-tagged) protein was expressed using a baculovirus system and purified by affinity chromatography by Amgen Inc. Concentrations of KIF18A protein, microtubules (MT), and ATP in the reaction were optimized for standardized homogenous enzyme assay using ADP-Glom Kinase/ATPase Assay Kit (Promega Inc). The assay measures ADP formed from the ATPase reaction. […] Read luminescence using EnVision microplate reader with ultra-luminescence module (Perkin Elmer Inc). Concentration-response curve-fitting and IC50 determination was performed using Genedata Screener Software (Standard 15.0.1, Genedata Inc) with a four-parameter logistic regression fit model.

T1 sequence (Q8NI77 1-467): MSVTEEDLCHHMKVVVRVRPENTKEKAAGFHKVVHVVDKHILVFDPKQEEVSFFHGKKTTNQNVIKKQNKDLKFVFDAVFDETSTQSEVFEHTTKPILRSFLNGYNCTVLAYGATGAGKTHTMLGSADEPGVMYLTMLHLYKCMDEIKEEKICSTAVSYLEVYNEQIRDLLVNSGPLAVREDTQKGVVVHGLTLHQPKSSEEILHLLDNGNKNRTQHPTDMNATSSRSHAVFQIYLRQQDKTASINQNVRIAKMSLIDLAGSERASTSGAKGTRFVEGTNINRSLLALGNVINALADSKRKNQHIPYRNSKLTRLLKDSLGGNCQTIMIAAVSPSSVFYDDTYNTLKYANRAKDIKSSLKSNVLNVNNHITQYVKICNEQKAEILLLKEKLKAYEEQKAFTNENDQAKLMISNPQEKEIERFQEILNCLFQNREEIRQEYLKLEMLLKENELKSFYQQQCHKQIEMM
T1 sequence (P02550 whole entry partner): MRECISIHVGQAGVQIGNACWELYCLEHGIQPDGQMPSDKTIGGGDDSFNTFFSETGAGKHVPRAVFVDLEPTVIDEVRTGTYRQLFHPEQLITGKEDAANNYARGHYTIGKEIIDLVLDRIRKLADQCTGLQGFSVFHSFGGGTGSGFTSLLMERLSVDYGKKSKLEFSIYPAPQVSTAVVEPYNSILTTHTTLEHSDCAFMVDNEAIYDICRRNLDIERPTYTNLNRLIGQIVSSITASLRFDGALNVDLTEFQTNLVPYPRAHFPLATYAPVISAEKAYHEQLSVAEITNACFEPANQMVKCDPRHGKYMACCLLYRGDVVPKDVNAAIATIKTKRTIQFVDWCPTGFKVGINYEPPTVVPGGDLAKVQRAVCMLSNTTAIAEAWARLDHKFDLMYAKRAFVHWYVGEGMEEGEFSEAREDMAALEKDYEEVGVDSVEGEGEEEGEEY
T1 sequence (P02554 whole entry partner): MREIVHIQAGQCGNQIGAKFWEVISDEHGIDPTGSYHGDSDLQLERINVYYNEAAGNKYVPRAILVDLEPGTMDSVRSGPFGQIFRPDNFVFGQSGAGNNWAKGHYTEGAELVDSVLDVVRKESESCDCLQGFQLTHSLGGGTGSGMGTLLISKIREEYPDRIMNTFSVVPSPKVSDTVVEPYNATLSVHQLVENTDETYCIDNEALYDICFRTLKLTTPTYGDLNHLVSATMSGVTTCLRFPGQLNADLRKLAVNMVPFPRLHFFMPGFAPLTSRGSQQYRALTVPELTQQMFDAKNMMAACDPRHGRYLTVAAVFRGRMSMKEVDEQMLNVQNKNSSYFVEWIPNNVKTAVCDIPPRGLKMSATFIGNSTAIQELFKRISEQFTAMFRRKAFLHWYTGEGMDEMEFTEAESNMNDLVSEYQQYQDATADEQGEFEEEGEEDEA

pIC50	Compound
6.87	CC(C)(C)NS(=O)(=O)c1cccc(NC(=O)c2ncc(NC(C)(C)CO)nc2-c2ccc(Cl)cc2)c1 [Example 104, N-(3-(N-(tert-butyl)sulfamoyl)phenyl)-3-(4-chlorophenyl)-5-((1-hydroxy-2-methylpropan-2-yl)amino)pyrazine-2-carboxamide]
6.38	CC(C)(C)NS(=O)(=O)c1cccc(NC(=O)c2ncc(NC(C)(C)CO)nc2-c2ccc(F)cc2)c1 [Example 104-1, N-(3-(N-(tert-butyl)sulfamoyl)phenyl)-3-(4-fluorophenyl)-5-((1-hydroxy-2-methylpropan-2-yl)amino)pyrazine-2-carboxamide]
6.77	CC(C)(C)NS(=O)(=O)c1cccc(NC(=O)c2ncc(NC(C)(C)CO)nc2-c2ccc(C(F)(F)F)cc2)c1 [Example 104-2, N-(3-(N-(tert-butyl)sulfamoyl)phenyl)-5-((1-hydroxy-2-methylpropan-2-yl)amino)-3-(4-(trifluoromethyl)phenyl)pyrazine-2-carboxamide]
6.84	CCc1ccc(-c2nc(NC(C)(C)CO)cnc2C(=O)Nc2cccc(S(=O)(=O)NC(C)(C)C)c2)cc1 [Example 104-3, N-(3-(N-(tert-butyl)sulfamoyl)phenyl)-3-(4-ethylphenyl)-5-((1-hydroxy-2-methylpropan-2-yl)amino)pyrazine-2-carboxamide]
6.85	CC(C)c1ccc(-c2nc(NC(C)(C)CO)cnc2C(=O)Nc2cccc(S(=O)(=O)NC(C)(C)C)c2)cc1 [Example 104-4, N-(3-(N-(tert-butyl)sulfamoyl)phenyl)-5-((1-hydroxy-2-methylpropan-2-yl)amino)-3-(4-isopropylphenyl)pyrazine-2-carboxamide]

The remaining lines, values behind:

Compound	pIC50
CC(C)(CO)Nc1cnc(C(=O)Nc2cccc(N3CCS(=O)(=O)CC3)c2)c(N2CCC3(CC2)CC3)n1 [Example 101-6, N-(3-(1,1-dioxidothiomorpholino)phenyl)-5-((1-hydroxy-2-methylpropan-2-yl)amino)-3-(6-azaspiro[2.5]octan-6-yl)pyrazine-2-carboxamide]	6.26
CC(C)(CO)Nc1cnc(C(=O)Nc2cccc(N3CCOCC3)c2)c(N2CCC3(CC2)CC3)n1 [Example 101-7, 5-((1-hydroxy-2-methylpropan-2-yl)amino)-N-(3-morpholinophenyl)-3-(6-azaspiro[2.5]octan-6-yl)pyrazine-2-carboxamide]	6.11
CC(C)(CO)Nc1cccc(NC(=O)c2ncc(NC(C)(C)CO)nc2N2CCC3(CC2)CC3)c1 [Example 101-8, 5-((1-hydroxy-2-methylpropan-2-yl)amino)-N-(3-((1-hydroxy-2-methylpropan-2-yl)amino)phenyl)-3-(6-azaspiro[2.5]octan-6-yl)pyrazine-2-carboxamide]	6.62
CC(C)(CO)Nc1cnc(C(=O)Nc2cccc(S(=O)(=O)C3CCCC3)c2)c(N2CCC3(CC2)CC3)n1 [Example 103, N-(3-(Cyclopentylsulfonyl)phenyl)-5-((1-hydroxy-2-methylpropan-2-yl)amino)-3-(6-azaspiro[2.5]octan-6-yl)pyrazine-2-carboxamide]	7.11
CC(C)(CO)Nc1cnc(C(=O)Nc2cccc(S(=O)(=O)N3CCCCC3)c2)c(N2CCC3(CC2)CC3)n1 [Example 103-1, 5-((1-hydroxy-2-methylpropan-2-yl)amino)-N-(3-(piperidin-1-ylsulfonyl)phenyl)-3-(6-azaspiro[2.5]octan-6-yl)pyrazine-2-carboxamide]	6.87
O=C(Nc1cccc(S(=O)(=O)C2CCCC2)c1)c1ncc(NC2(CO)CC2)nc1N1CCC2(CC1)CC2 [Example 103-2, N-(3-(cyclopentylsulfonyl)phenyl)-5-((1-(hydroxymethyl)cyclopropyl)amino)-3-(6-azaspiro[2.5]octan-6-yl)pyrazine-2-carboxamide]	6.84
CC(C)(C)NS(=O)(=O)c1cccc(NC(=O)c2ncc(NC3(CO)CC3)nc2N2CCC3(CC2)CC3)c1 [Example 103-3, N-(3-(N-(tert-butyl)sulfamoyl)phenyl)-5-((1-(hydroxymethyl)cyclopropyl)amino)-3-(6-azaspiro[2.5]octan-6-yl)pyrazine-2-carboxamide]	6.86
CC(C)(O)CNc1cnc(C(=O)Nc2cccc(S(=O)(=O)N3CCCCC3)c2)c(N2CCC3(CC2)CC3)n1 [Example 103-4, 5-((2-hydroxy-2-methylpropyl)amino)-N-(3-(piperidin-1-ylsulfonyl)phenyl)-3-(6-azaspiro[2.5]octan-6-yl)pyrazine-2-carboxamide]	6.39
CC(C)(C)NS(=O)(=O)c1cccc(NC(=O)c2ncc(NC(C)(CO)CO)nc2N2CCC3(CC2)CC3)c1 [Example 106, N-(3-(N-(tert-butyl)sulfamoyl)phenyl)-5-((1,3-dihydroxy-2-methylpropan-2-yl)amino)-3-(6-azaspiro[2.5]octan-6-yl)pyrazine-2-carboxamide]	6.99
